Results published in patent publication US11306078B2, “Piperidine CXCR7 receptor modulators” (IDORSIA PHARMACEUTICALS LTD., priority 2016, dated 2022).

biological target: human chemokine receptor CXCR7 (Homo sapiens (Human), UniProt P25106); experiment: Tango CXCR7-bla U2OS beta-arrestin recruitment assay (beta-lactamase reporter, FRET), antagonism of CXCL12/SDF1-α; format: cell-based; conditions: antagonistic effect on CXCR7; Tango CXCR7-bla U2OS cells, CXCL12/SDF1-α at its EC80;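 further: compounds preincubated 15 min before CXCL12 addition, then 22 h at 37 °C, FRET emission ratio read with CCF4-AM substrate after 2 h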
Sequence (P25106 whole entry): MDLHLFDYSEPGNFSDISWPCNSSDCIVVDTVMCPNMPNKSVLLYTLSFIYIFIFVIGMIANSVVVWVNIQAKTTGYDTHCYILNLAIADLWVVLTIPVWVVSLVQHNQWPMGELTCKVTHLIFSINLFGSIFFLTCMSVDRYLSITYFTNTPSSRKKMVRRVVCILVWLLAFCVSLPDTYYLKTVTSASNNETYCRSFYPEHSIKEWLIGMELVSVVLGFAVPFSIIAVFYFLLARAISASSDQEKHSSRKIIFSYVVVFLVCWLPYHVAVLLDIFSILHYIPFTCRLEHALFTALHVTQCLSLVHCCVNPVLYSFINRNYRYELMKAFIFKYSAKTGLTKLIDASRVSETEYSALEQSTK

Structure (SMILES) | IC50 [nM]
O=C(N[C@@H]1CCN(CC2CC2)C[C@H]1C(=O)NC1(c2ncccn2)CC1)c1cc(-c2c(F)cc(F)cc2F)on1 (single isomer, unassigned) [Example 3.020a, (3R*,4R*)-1-Cyclopropylmethyl-4-{[5-(2,4,6-trifluoro-phenyl)-isoxazole-3-carbonyl]-amino}-piperidine-3-carboxylic acid (1-pyrimidin-2-yl-cyclopropyl)-amide] | 271
O=C(N[C@@H]1CCN(CC2CC2)C[C@H]1C(=O)NC1(c2ncccn2)CC1)c1noc(-c2ccc(F)cc2F)c1F (single isomer, unassigned) [Example 3.022a, (3R,4R)-1-Cyclopropylmethyl-4-{[5-(2,4-difluoro-phenyl)-4-fluoro-isoxazole-3-carbonyl]-amino}-piperidine-3-carboxylic acid (1-pyrimidin-2-yl-cyclopropyl)-amide or (3S,4S)-1-cyclopropylmethyl-4-{[5-(2,4-difluoro-phenyl)-4-fluoro-isoxazole-3-carbonyl]-amino}-piperidine-3-carboxylic acid (1-pyrimidin-2-yl-cyclopropyl)-amide] | 25
COc1ccccc1C(C)NC(=O)[C@H]1CN(CC2CC2)CC[C@@H]1NC(=O)c1cc(-c2ccc(F)cc2F)on1 (single isomer, unassigned) [Example 4.072a] | 8
O=C(N[C@@H]1CCN(CC2CC2)C[C@H]1C(=O)NC1(c2ncccn2)CC1)c1cc(-c2c(F)cc(F)cc2F)on1 (single isomer, unassigned) [Example 30.20b, (3R*,4R*)-1-Cyclopropylmethyl-4-{[5-(2,4,6-trifluoro-phenyl)-isoxazole-3-carbonyl]-amino}-piperidine-3-carboxylic acid (1-pyrimidin-2-yl-cyclopropyl)-amide] | 4
COC(=O)C1CN(C2CCCCC2)CCC1NC(=O)c1noc(-c2ccc(F)c(F)c2)n1 (stereo not shown) [BB 1.18c] | 119
CN(C)C(=O)[C@@H]1CN(CC2CC2)CC[C@H]1NC(=O)c1cc(-c2c(F)cc(F)cc2F)on1 [Example 1.1] | 128
Cc1cnc(CNC(=O)[C@@H]2CN(C3CCCCC3)CC[C@H]2NC(=O)c2cc(-c3ccc(F)cc3F)on2)s1 [Example 1.02] | 198
O=C(N[C@@H]1CCN(C2CCCCC2)C[C@H]1C(=O)NCc1ccncc1)c1cc(-c2ccc(F)cc2F)on1 [Example 1.05] | 223
CC(CNC(=O)[C@@H]1CN(C2CCCCC2)CC[C@H]1NC(=O)c1cc(-c2ccc(F)cc2F)on1)c1ccccc1 (stereo partly shown) [Example 1.06] | 727
O=C(N[C@@H]1CCN(C2CCCCC2)C[C@H]1C(=O)N1CCC(c2ccccc2)C1)c1cc(-c2ccc(F)cc2F)on1 (stereo partly shown) [Example 1.07] | 559
CC(C)(CC(F)(F)F)NC(=O)[C@@H]1CN(C2CCCCC2)CC[C@H]1NC(=O)c1cc(-c2ccc(F)cc2F)on1 [Example 1.08] | 564
C[C@@H](NC(=O)[C@@H]1CN(C2CCCCC2)CC[C@H]1NC(=O)c1cc(-c2ccc(F)cc2F)on1)c1cnccn1 [Example 1.09] | 35
COCC(C)(C)NC(=O)[C@@H]1CN(CC2CC2)CC[C@H]1NC(=O)c1cn(-c2ccc(F)cc2F)nn1 [Example 1.11] | 535
C[C@@H]1CCC[C@H]1N1CC[C@@H](NC(=O)c2cn(-c3ccc(F)cc3F)nn2)[C@H](C(=O)N[C@H](C)c2ccccn2)C1 [Example 1.12] | 789
C[C@@H](NC(=O)[C@@H]1CN(C2CCCC2)CC[C@H]1NC(=O)c1cc(-c2c(F)cc(F)cc2F)on1)c1cnccn1 [Example 1.13] | 140
C[C@@H](NC(=O)[C@@H]1CN(C2CCCCC2)CC[C@H]1NC(=O)c1cc(-c2ccc(F)cc2F)no1)C1CCC1 [Example 1.14] | 358
C[C@@H]1CCC[C@H]1N1CC[C@@H](NC(=O)c2cc(-c3ccc(F)cc3F)no2)[C@H](C(=O)N(C)C)C1 [Example 1.15] | 155
C[C@@H](NC(=O)[C@@H]1CN(C2CCCCC2)CC[C@H]1NC(=O)c1noc(-c2ccc(F)cc2F)n1)c1cnccn1 [Example 1.16] | 526
O=C(N[C@@H]1CCN(C2CCCC2)C[C@H]1C(=O)NC1(c2ccccn2)CC1)c1cc(-c2c(F)cc(F)cc2F)on1 [Example 1.17] | 16
O=C(N[C@@H]1CCN(CC2CC2)C[C@H]1C(=O)NC1(c2ncccn2)CC1)c1cc(-c2ccccc2C(F)(F)F)on1 [Example 1.19] | 294
O=C(N[C@H]1CCN(CC2CC2)C[C@@H]1C(=O)NC1(c2cnccn2)CC1)c1cc(-c2ccc(F)cc2F)on1 [Example 1.179, (3S,4S)-1-Cyclopropylmethyl-4-{[5-(2,4-difluoro-phenyl)-isoxazole-3-carbonyl]-amino}-piperidine-3-carboxylic acid (1-pyrazin-2-yl-cyclopropyl)-amide] | 50
O=C(N[C@H]1CCN(C2CCCC2)C[C@@H]1C(=O)NC1(c2cnccn2)CC1)c1cc(-c2ccc(F)cc2F)on1 [Example 1.181, (3S,4S)-1-Cyclopentyl-4-{[5-(2,4-difluoro-phenyl)-isoxazole-3-carbonyl]-amino}-piperidine-3-carboxylic acid (1-pyrazin-2-yl-cyclopropyl)-amide] | 104
O=C(N[C@H]1CCN(C2CCCC2)C[C@@H]1C(=O)NC1(c2cccnn2)CC1)c1cc(-c2ccc(F)cc2F)on1 [Example 1.182, (3S,4S)-1-Cyclopentyl-4-{[5-(2,4-difluoro-phenyl)-isoxazole-3-carbonyl]-amino}-piperidine-3-carboxylic acid (1-pyridazin-3-yl-cyclopropyl)-amide] | 218
Cc1cc(C)nc(C2(NC(=O)[C@H]3CN(C4CCCC4)CC[C@@H]3NC(=O)c3cc(-c4ccc(F)cc4F)on3)CC2)n1 [Example 1.184, (3S,4S)-1-Cyclopentyl-4-{[5-(2,4-difluoro-phenyl)-isoxazole-3-carbonyl]-amino}-piperidine-3-carboxylic acid [1-(4,6-dimethyl-pyrimidin-2-yl)-cyclopropyl]-amide] | 3
Cc1cc(C)nc(C2(NC(=O)[C@H]3CN(CC4CC4)CC[C@@H]3NC(=O)c3cc(-c4ccc(F)cc4F)on3)CC2)n1 [Example 1.185, (3S,4S)-1-Cyclopropylmethyl-4-{[5-(2,4-difluoro-phenyl)-isoxazole-3-carbonyl]-amino}-piperidine-3-carboxylic acid [1-(4,6-dimethyl-pyrimidin-2-yl)-cyclopropyl]-amide] | 9

Other lines, results leading:

IC50 [nM] | Structure (SMILES)
670 | CCN1CC[C@@H](NC(=O)c2cc(-c3ccc(F)cc3F)on2)[C@H](C(=O)N(C)C)C1 [Example 2.002]
248 | CN(C)C(=O)[C@@H]1CN(CC(C)(C)C)CC[C@H]1NC(=O)c1cc(-c2ccc(F)cc2F)on1 [Example 2.02]
34 | CC(C)N1CC[C@@H](NC(=O)c2cc(-c3ccc(F)cc3F)on2)[C@H](C(=O)N(C)CCc2ccccc2)C1 [Example 2.003]
74 | CN(C)C(=O)[C@@H]1CN(CC2CCCC2)CC[C@H]1NC(=O)c1cc(-c2ccc(F)cc2F)on1 [Example 2.03]
118 | CCN1CC[C@@H](NC(=O)c2cc(-c3ccc(F)cc3F)on2)[C@H](C(=O)N(C)CCc2ccccc2)C1 [Example 2.004]
475 | O=C(N[C@@H]1CCN([C@@H]2CCCC[C@H]2F)C[C@H]1C(=O)O)c1cc(-c2ccc(F)cc2F)on1 [Example 2.04]
25 | CN(CCc1ccccc1)C(=O)[C@@H]1CN(C2CCCC2)CC[C@H]1NC(=O)c1cc(-c2ccc(F)cc2F)on1 [Example 2.005]
15 | CN(CCc1ccccc1)C(=O)[C@@H]1CN([C@@H]2CCCC[C@H]2O)CC[C@H]1NC(=O)c1cc(-c2ccc(F)cc2F)on1 [Example 2.05]
15 | CN(CCc1ccccc1)C(=O)[C@@H]1CN(CC2CC2)CC[C@H]1NC(=O)c1cc(-c2ccc(F)cc2F)on1 [Example 2.006]
4 | O=C(N[C@@H]1CCN([C@@H]2CCCC[C@H]2O)C[C@H]1C(=O)NC1(c2ncccn2)CC1)c1cc(-c2ccc(F)cc2F)on1 [Example 2.06]
88 | CC(NC(=O)[C@@H]1CN(C(C)C)CC[C@H]1NC(=O)c1cc(-c2ccc(F)cc2F)on1)c1ccccn1 (stereo partly shown) [Example 2.007]
11 | CC(C)CN1CC[C@H](NC(=O)c2cc(-c3ccc(F)cc3F)on2)[C@@H](C(=O)NC2(c3ncccn3)CC2)C1 [Example 2.07]
405 | CCN1CC[C@@H](NC(=O)c2cc(-c3ccc(F)cc3F)on2)[C@H](C(=O)NC(C)c2ccccn2)C1 (stereo partly shown) [Example 2.008]
311 | O=C(N[C@@H]1CCN(CC2CC2)C[C@H]1C(=O)NCCc1ccccn1)c1cc(-c2ccc(F)cc2F)on1 [Example 2.08]
10 | CC(NC(=O)[C@@H]1CN(C2CCCC2)CC[C@H]1NC(=O)c1cc(-c2ccc(F)cc2F)on1)c1ccccn1 (stereo partly shown) [Example 2.009]
114 | CC(NC(=O)[C@@H]1CN(CC2CC2)CC[C@H]1NC(=O)c1cc(-c2ccc(F)cc2F)on1)c1cccc[n+]1[O-] (stereo partly shown) [Example 2.011]

same assay, conditions: antagonistic effect on CXCR7; Tango CXCR7-bla U2OS cells; CXCL12/SDF1-α at its EC80; geometric mean

Structure (SMILES) | IC50 [nM]
O=C(N[C@@H]1CCN(CC2CC2)C[C@H]1C(=O)NC1(c2ncccn2)CC1)c1cc(C2CC2)on1 (single isomer, unassigned) [Reference Compound 1a, (3R,4R)-4-[(5-Cyclopropyl-isoxazole-3-carbonyl)-amino]-1-cyclopropylmethyl-piperidine-3-carboxylic acid (1-pyrimidin-2-yl-cyclopropyl)-amide or (3S,4S)-4-[(5-cyclopropyl-isoxazole-3-carbonyl)-amino]-1-cyclopropylmethyl-piperidine-3-carboxylic Acid (1-pyrimidin-2-yl-cyclopropyl)-amide, reference compound] | > 10000
O=C(N[C@@H]1CCN(CC2CC2)C[C@H]1C(=O)NC1(c2ncccn2)CC1)c1cc(C2CC2)on1 (single isomer, unassigned) [Reference Compound 1b, (3R,4R)-4-[(5-Cyclopropyl-isoxazole-3-carbonyl)-amino]-1-cyclopropylmethyl-piperidine-3-carboxylic acid (1-pyrimidin-2-yl-cyclopropyl)-amide or (3S,4S)-4-[(5-cyclopropyl-isoxazole-3-carbonyl)-amino]-1-cyclopropylmethyl-piperidine-3-carboxylic Acid (1-pyrimidin-2-yl-cyclopropyl)-amide, reference compound] | > 10000
